Data as given in patent US12649750B2, “Macrocyclic compounds, compositions, and methods of using thereof” (Sionna Therapeutics Inc., priority 2022, dated 2026).

Legend:
CFTR = target: T1, CFTR (Homo sapiens, UniProt P13569, DEL508-508); assay: TECC24 AUC fold over DMSO @10 μM, CFTR-mediated transepithelial chloride transport in CF-HBE cells; assay type: cell-based; conditions: test agent AUC divided by DMSO vehicle AUC, primary CF-HBE cells, ΔF508 homozygous donor, 48 hours incubation
T1 construct: Primary human bronchial epithelial cells from a ΔF508 homozygous CF donor; host or cells: primary human bronchial epithelial cells (CF-HBE), ΔF508 homozygous donor
T1 sequence (P13569 with tags, fused parts or gaps DEL508-508): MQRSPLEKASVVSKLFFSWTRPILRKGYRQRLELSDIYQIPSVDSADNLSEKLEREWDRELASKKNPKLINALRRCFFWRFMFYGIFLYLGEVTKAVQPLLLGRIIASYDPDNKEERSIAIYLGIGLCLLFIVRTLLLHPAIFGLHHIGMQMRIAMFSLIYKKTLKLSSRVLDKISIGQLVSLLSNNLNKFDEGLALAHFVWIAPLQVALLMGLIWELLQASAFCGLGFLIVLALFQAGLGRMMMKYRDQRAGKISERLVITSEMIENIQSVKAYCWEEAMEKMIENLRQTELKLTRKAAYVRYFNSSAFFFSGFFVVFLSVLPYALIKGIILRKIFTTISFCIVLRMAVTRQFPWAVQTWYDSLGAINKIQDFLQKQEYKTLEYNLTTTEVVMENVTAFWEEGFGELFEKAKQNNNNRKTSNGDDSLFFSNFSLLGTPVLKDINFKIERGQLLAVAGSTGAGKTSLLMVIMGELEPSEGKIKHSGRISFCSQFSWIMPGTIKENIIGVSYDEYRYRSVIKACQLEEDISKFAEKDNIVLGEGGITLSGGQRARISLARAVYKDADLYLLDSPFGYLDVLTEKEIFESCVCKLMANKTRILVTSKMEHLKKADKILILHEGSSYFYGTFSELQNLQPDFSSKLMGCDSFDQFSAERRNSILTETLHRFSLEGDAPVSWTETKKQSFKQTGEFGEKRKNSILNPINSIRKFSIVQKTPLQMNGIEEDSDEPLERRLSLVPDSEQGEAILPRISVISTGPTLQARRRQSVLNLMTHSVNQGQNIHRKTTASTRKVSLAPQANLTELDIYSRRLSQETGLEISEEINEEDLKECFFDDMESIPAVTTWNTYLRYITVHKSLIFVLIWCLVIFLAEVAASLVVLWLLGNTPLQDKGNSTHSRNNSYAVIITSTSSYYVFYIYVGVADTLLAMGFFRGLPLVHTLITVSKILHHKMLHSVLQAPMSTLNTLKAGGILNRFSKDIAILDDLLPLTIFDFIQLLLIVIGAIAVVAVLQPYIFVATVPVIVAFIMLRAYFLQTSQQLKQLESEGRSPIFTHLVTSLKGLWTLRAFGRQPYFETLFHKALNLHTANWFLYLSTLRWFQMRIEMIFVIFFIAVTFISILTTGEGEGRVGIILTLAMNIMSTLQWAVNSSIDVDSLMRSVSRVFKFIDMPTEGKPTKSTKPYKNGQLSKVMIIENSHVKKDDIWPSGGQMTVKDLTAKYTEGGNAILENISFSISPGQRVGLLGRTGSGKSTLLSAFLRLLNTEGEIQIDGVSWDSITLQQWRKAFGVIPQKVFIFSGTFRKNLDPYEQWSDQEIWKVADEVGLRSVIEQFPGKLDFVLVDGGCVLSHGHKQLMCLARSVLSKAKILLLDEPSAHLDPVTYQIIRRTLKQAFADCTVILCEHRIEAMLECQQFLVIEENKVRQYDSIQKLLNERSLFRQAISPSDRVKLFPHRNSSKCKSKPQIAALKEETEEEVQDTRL
How it was run: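 ΔF508-homozygous primary bronchial epithelial cells incubated 48 h at 36.5° C with compound (10 μM) in IL-13-containing medium, then TECC24 current-clamp recording in pH 7.4 Hepes saline with benzamil 10 μM, forskolin 10 μM, then CFTR inhibitor-172 20 μM. Equivalent Cl− current AUC between forskolin and inhibitor, expressed as fold over DMSO.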

NBD1 = target: T2, NBD1 (Homo sapiens, UniProt P13569); assay: Aggregation analysis using differential static light scattering (DSLS), thermal stability of NBD1 (ΔTagg); assay type: binding; conditions: ΔTagg versus DMSO control, NBD1 0.2 mg/ml
T2 construct: Purified recombinant NBD1 was produced using previously described methods; made in house
T2 sequence (P13569 423-646 limits assumed): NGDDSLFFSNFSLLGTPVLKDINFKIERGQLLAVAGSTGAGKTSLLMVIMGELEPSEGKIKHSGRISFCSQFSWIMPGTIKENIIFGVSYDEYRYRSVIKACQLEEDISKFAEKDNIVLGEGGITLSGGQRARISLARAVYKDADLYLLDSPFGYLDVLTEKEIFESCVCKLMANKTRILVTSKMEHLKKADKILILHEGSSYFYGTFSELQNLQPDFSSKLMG
How it was run: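 Thermal aggregation of purified NBD1 was followed by static light scattering during a 1° C./min ramp to 70° C. Protein was at 0.2 mg/ml with 2 mM ATP at pH7.6. Each compound's Tagg was referenced to DMSO controls.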

SMILES	TECC (AUC, 10 μM) (CFTR)	DSLS 3D (100 μM ΔT) (NBD1)
CC1(C)COCC(c2cccc(CCC(=O)O)c2)n2ccc(n2)-c2cc(ccc2F)Oc2c(F)cc3[nH]ccc3c2CCS(=O)(=O)C1 (stereo not drawn) [Compound 58, 3-[3-(22,28-Difluoro-10,10-dimethyl-12,12-dioxo-8,24-dioxa-12λ6-thia-5,19,30-triazapentacyclo[23.3.1.12,5.015,23.016,20]triaconta-1(29),2(30),3,15,17,20,22,25,27-nonaen-6-yl)phenyl]propanoic Acid]	B (a value between 12-20 is marked “B”)	C (a value greater than 10 °C and less than or equal to 25 °C is marked “C”)
CC1(C)COCCC(c2cccc(CCC(=O)O)c2)n2ccc(n2)-c2cc(ccc2F)Oc2c(F)cc3[nH]ccc3c2CS(=O)(=O)C1 (stereo not drawn) [Compound 59, 3-[3-(22,28-Difluoro-11,11-dimethyl-13,13-dioxo-9,24-dioxa-13λ6-thia-5,19,30-triazapentacyclo[23.3.1.12,5.015,23.016,20]triaconta-1(29),2(30),3,15,17,20,22,25,27-nonaen-6-yl)phenyl]propanoic Acid]	C (a value between 20 and 80 is marked “C”)	C (a value greater than 10 °C and less than or equal to 25 °C is marked “C”)
CC1(C)COCCC(c2cccc(CCC(=O)O)c2)n2nccc2-c2cc(ccc2F)Oc2c(F)cc3[nH]ccc3c2CS(=O)(=O)C1 (stereo not drawn) [Compound 60, 3-[3-(23,29-Difluoro-12,12-dimethyl-14,14-dioxo-10,25-dioxa-14λ6-thia-5,6,20-triazapentacyclo[24.3.1.02,6.016,24.017,21]triaconta-1(30),2,4,16,18,21,23,26,28-nonaen-7-yl)phenyl]propanoic Acid]	A (a TECC value less than 12 is marked “A”)	A (an ΔTagg value less than or equal to 5 °C is marked “A”)
Cn1cc2nc1-c1cc(ccc1F)Oc1c(F)cc3[nH]ccc3c1CCS(=O)(=O)CC(C)(C)CCCC2(C)c1cccc(CC(=O)O)c1 (stereo not drawn) [Compound 61, 2-[3-(22,28-Difluoro-3,6,10,10-tetramethyl-12,12-dioxo-24-oxa-12lambda6-thia-3,19,30-triazapentacyclo[23.3.1.12,5.015,23.016,20]triaconta-1(29),2(30),4,15,17,20,22,25,27-nonaen-6-yl)phenyl]acetic Acid]	B (a value between 12-20 is marked “B”)	C (a value greater than 10 °C and less than or equal to 25 °C is marked “C”)
CCn1nc2nc1-c1cc(ccc1F)Oc1c(F)cc3[nH]ccc3c1CCS(=O)(=O)CC(C)(C)CCCC2c1cccc(CCC(=O)O)c1 (stereo not drawn) [Compound 62, 3-[3-(3-Ethyl-22,28-difluoro-10,10-dimethyl-12,12-dioxo-24-oxa-12λ6-thia-3,4,19,30-tetrazapentacyclo[23.3.1.12,5.015,23.016,20]triaconta-1(29),2(30),4,15,17,20,22,25,27-nonaen-6-yl)phenyl]propanoic Acid]	C (a value between 20 and 80 is marked “C”)	C (a value greater than 10 °C and less than or equal to 25 °C is marked “C”)
Cn1nc2nc1-c1cc(ccc1F)Oc1c(F)cc3[nH]ccc3c1CCS(=O)(=O)CC(C)(C)CCCC2(C)c1cccc(CCCO)c1 (stereo not drawn) [Compound 64, 3-[3-(22,28-Difluoro-3,6,10,10-tetramethyl-12,12-dioxo-24-oxa-12λ6-thia-3,4,19,30-tetrazapentacyclo[23.3.1.12,5.015,23.016,20]triaconta-1(29),2(30),4,15,17,20,22,25,27-nonaen-6-yl)phenyl]propan-1-ol]	B (a value between 12-20 is marked “B”)	C (a value greater than 10 °C and less than or equal to 25 °C is marked “C”)
Cn1nc2nc1-c1cc(ccc1F)Oc1c(F)cc3[nH]ccc3c1CCS(=O)(=O)CC(C)(C)COCC2(C)c1cccc(CC(=O)O)c1 (stereo not drawn) [Compound 69, 2-[3-(22,28-Difluoro-3,6,10,10-tetramethyl-12,12-dioxo-8,24-dioxa-12λ6-thia-3,4,19,30-tetrazapentacyclo[23.3.1.12,5.015,23.016,20]triaconta-1(29),2(30),4,15,17,20,22,25,27-nonaen-6-yl)phenyl]acetic Acid]	A (a TECC value less than 12 is marked “A”)	C (a value greater than 10 °C and less than or equal to 25 °C is marked “C”)
CC1(C)CCCC(c2cccc(CCC(=O)O)c2)n2cc(Cl)c(n2)-c2cc(ccc2F)Oc2c(F)cc3[nH]ccc3c2CCS(=O)(=O)C1 (stereo not drawn) [Compound 70, 3-[3-(3-Chloro-22,28-difluoro-10,10-dimethyl-12,12-dioxo-24-oxa-12λ6-thia-5,19,30-triazapentacyclo[23.3.1.12,5.015,23.016,20]triaconta-1(29),2(30),3,15,17,20,22,25,27-nonaen-6-yl)phenyl]propanoic Acid]	A (a TECC value less than 12 is marked “A”)	C (a value greater than 10 °C and less than or equal to 25 °C is marked “C”)
CC1(C)CCCC(c2cccc(CCC(=O)O)c2)n2ncc(Cl)c2-c2cc(ccc2F)Oc2c(F)cc3[nH]ccc3c2CCS(=O)(=O)C1 (stereo not drawn) [Compound 71, 3-[3-(3-Chloro-23,29-difluoro-11,11-dimethyl-13,13-dioxo-25-oxa-13λ6-thia-5,6,20-triazapentacyclo[24.3.1.02,6.016,24.017,21]triaconta-1(30),2,4,16,18,21,23,26,28-nonaen-7-yl)phenyl]propanoic Acid]	A (a TECC value less than 12 is marked “A”)	C (a value greater than 10 °C and less than or equal to 25 °C is marked “C”)
CC(C)n1nc2nc1C(C)(c1cccc(CCC(=O)O)c1)CCCC(C)(C)CS(=O)(=O)CCc1c(c(F)cc3[nH]ccc13)Oc1ccc(F)c-2c1 (stereo not drawn) [Compound 74, 3-[3-(22,28-Difluoro-4-isopropyl-6,10,10-trimethyl-12,12-dioxo-24-oxa-12λ6-thia-3,4,19,30-tetrazapentacyclo-[23.3.1.12,5.015,23.016,20]triaconta-1(29),2,5(30),15,17,20,22,25,27-nonaen-6-yl)phenyl]propanoic acid]	A (a TECC value less than 12 is marked “A”)	C (a value greater than 10 °C and less than or equal to 25 °C is marked “C”)
CC(C)n1nc2nc1-c1cc(ccc1F)Oc1c(F)cc3[nH]ccc3c1CCS(=O)(=O)CC(C)(C)CCCC2(C)c1cccc(CCC(=O)O)c1 (stereo not drawn) [Compound 75, 3-[3-(22,28-difluoro-3-isopropyl-6,10,10-trimethyl-12,12-dioxo-24-oxa-12λ6-thia-3,4,19,30-tetrazapentacyclo-[23.3.1.12,5.015,23.016,20]triaconta-1(29),2(30),4,15,17,20,22,25,27-nonaen-6-yl)phenyl]propanoic Acid]	A (a TECC value less than 12 is marked “A”)	C (a value greater than 10 °C and less than or equal to 25 °C is marked “C”)
Cc1cn2nc1-c1cc(ccc1F)Oc1c(F)cc3[nH]ccc3c1CCS(=O)(=O)CC(C)(C)COCCC2c1cccc(CCC(=O)O)c1 (stereo not drawn) [Compound 76, 3-[3-(23,29-Difluoro-3,11,11-trimethyl-13,13-dioxo-9,25-dioxa-13λ6-thia-5,20,31-triazapentacyclo[24.3.1.12,5.016,24.017,21]hentriaconta-1(30),2(31),3,16,18,21,23,26,28-nonaen-6-yl)phenyl]propanoic Acid]	A (a TECC value less than 12 is marked “A”)	C (a value greater than 10 °C and less than or equal to 25 °C is marked “C”)
Cn1cc2nc1-c1cc(ccc1F)Oc1c(F)cc3[nH]ccc3c1CCS(=O)(=O)CC(C)(C)CCCC2(C)c1cccc(CCC(=O)O)c1 (stereo not drawn) [Compound 77, 3-[3-(22,28-Difluoro-3,6,10,10-tetramethyl-12,12-dioxo-24-oxa-12λ6-thia-3,19,30-triazapentacyclo[23.3.1.12,5.015,23.016,20]triaconta-1(29),2(30),4,15,17,20,22,25,27-nonaen-6-yl)phenyl]propanoic Acid]	A (a TECC value less than 12 is marked “A”)	C (a value greater than 10 °C and less than or equal to 25 °C is marked “C”)
Cn1nc2nc1-c1cc(ccc1F)Oc1c(F)cc3[nH]ccc3c1CCS(=O)(=O)CC(C)(C)OCCC2(C)c1cccc(CCO)c1 (stereo not drawn) [Compound 78, 2-[3-(22,28-Difluoro-3,6,10,10-tetramethyl-12,12-dioxo-9,24-dioxa-12lambda6-thia-3,4,19,30-tetrazapentacyclo-[23.3.1.12,5.015,23.016,20]triaconta-1(29),2(30),4,15,17,20,22,25,27-nonaen-6-yl)phenyl]-ethanol]	A (a TECC value less than 12 is marked “A”)	B (a value above 5 °C and less than or equal to 10 °C is marked “B”)
CCOC(=O)CCc1cccc(C2CCS(=O)(=O)CCS(=O)(=O)CCc3c(c(F)cc4[nH]ccc34)Oc3ccc(F)c(c3)-c3ccn2n3)c1 (stereo not drawn) [Compound 92, Ethyl 3-[3-(22,28-difluoro-9,9,12,12-tetraoxo-24-oxa-9lambda6,12lambda6-dithia-5,19,30-triazapentacyclo[23.3.1.12,5.015,23.016,20]triaconta-1(29),2(30),3,15,17,20,22,25,27-nonaen-6-yl)phenyl]propanoate]	A (a TECC value less than 12 is marked “A”)	A (an ΔTagg value less than or equal to 5 °C is marked “A”)
